In US8765696B2, “Steroid compound” (Mikasa Seiyaku Co., Ltd., priority 2009, dated 2014):

What was measured:
[1] = tested on: croton oil-induced ear edema; test: Test for croton oil-induced ear edema; assay type: in vivo; settings: rat right auricle; for Edema suppression rate of 6 hours after administration of inflammatory agent (%): 6 hours after croton oil; for Edema suppression rate of 24 hours after administration of inflammatory agent (%): 24 hours after croton oil
Procedure: Croton oil ear edema test, which is a representative model for dermatitis, was used to study the pharmacological effect of compounds of the present invention.
Five individuals/group of rats of 5 weeks old (body weight, 128 g to 169 g) were used. One day before the test, the thickness of the right ear was measured under ether anesthesia using a dial thickness gauge, to obtain the Pre value. On the day of the test, 20 mg each of the ointments to be tested, which had been prepared to have various concentrations in white vaseline, was applied to the right auricle (both sides) of each rat, and a collar was then placed around the neck of the rat to prevent contacting/scratching and removal of the drug. Two hours later, the ointment was wiped off under ether anesthesia using absorbent cotton, and 0.1 mL of 5% croton oil (croton oil:ether:pyridine:distilled water=1:14:4:1) solution was applied dropwise to the both sides of the auricle while drying the solution with a drier (air blow), to induce ear edema. Six and 24 hours after the induction of the edema, the thickness of the right auricle was measured under ether anesthesia, and the edema rate and the edema suppression rate were calculated according to the equations below, which suppression rate is shown in Table 1.

[2] = tested on: croton oil-induced granuloma; test: Test for croton oil-induced granuloma (air pouch exudate and thymus weight); assay type: in vivo, rat; settings: male Wistar rats, 7 days, vs control group
Description: Using the croton oil granuloma test, which is a test method with which the local anti-inflammatory action and the systemic side effect can be evaluated at the same time, the pharmacological effect and the systemic side effect of the compounds of the present invention were studied.
Five individuals/group of male Wistar rats having body weights of 180 to 225 g were used, and hair on the back of these rats was shaved with a clipper under ether anesthesia, followed by preparing an air pouch by subcutaneous injection of 20 mL of air at the back. On the next day, 1 mL of cottonseed oil containing 1% croton oil was administered to the pouch. Each test drug was suspended in the croton oil-containing cottonseed oil before administration. Seven days later, blood was collected from abdominal aorta under ether anesthesia, and exudate in the pouch was collected and its fluid amount was measured. Further, the thymus was removed, and its weight was measured. The weight of the exudate and the weight of the thymus are shown in Table 2 as the suppression rate and the atrophy rate (%) with respect to those of the control group.

SMILES	Edema suppression rate of 6 hours after administration of inflammatory agent (%) ([1]; ointment concentration 0.001%)	Edema suppression rate of 24 hours after administration of inflammatory agent (%) ([1]; ointment concentration 0.001%)	Edema suppression rate of 6 hours after administration of inflammatory agent (%) ([1]; ointment concentration 0.01%)	Edema suppression rate of 24 hours after administration of inflammatory agent (%) ([1]; ointment concentration 0.01%)	Edema suppression rate of 6 hours after administration of inflammatory agent (%) ([1]; ointment concentration 0.1%)	Edema suppression rate of 24 hours after administration of inflammatory agent (%) ([1]; ointment concentration 0.1%)	Rate of exudates suppression (pharmacological effects) ([2]; dose 0.001 mg/rat into pouch) [%]	Rate of thymus atrophy (systemic side effects) ([2]; dose 0.001 mg/rat into pouch) [%]	Rate of exudates suppression (pharmacological effects) ([2]; dose 0.01 mg/rat into pouch) [%]	Rate of thymus atrophy (systemic side effects) ([2]; dose 0.01 mg/rat into pouch) [%]	Rate of exudates suppression (pharmacological effects) ([2]; dose 0.1 mg/rat into pouch) [%]	Rate of thymus atrophy (systemic side effects) ([2]; dose 0.1 mg/rat into pouch) [%]	Rate of exudates suppression (pharmacological effects) ([2]; dose 1 mg/rat into pouch) [%]	Rate of thymus atrophy (systemic side effects) ([2]; dose 1 mg/rat into pouch) [%]
CCC(=O)OCC1OC(OCC(=O)C23OC(C4CCCCC4)OC2CC2C4CCC5=CC(=O)C=CC5(C)C4C(O)CC23C)C(OC(=O)CC)C(OC(=O)CC)C1OC(=O)CC (stereo not drawn) [Compound 4]	30.8	33.8	46.3	70.2	54.4	71.7	17.9	0.0	44.5	0.0	87.0	0.0	94.5	0.0
CC(C)C(=O)OCC1OC(OCC(=O)C23OC(C4CCCCC4)OC2CC2C4CCC5=CC(=O)C=CC5(C)C4C(O)CC23C)C(OC(=O)C(C)C)C(OC(=O)C(C)C)C1OC(=O)C(C)C (stereo not drawn) [Compound 6]	27.5	30.5	53.1	45.8	53.1	55.1	0.0	0.0	12.0	0.0	31.2	0.0	71.9	0.0
CC(=O)OC1C(C)OC(OCC(=O)C23OC(C4CCCCC4)OC2CC2C4CCC5=CC(=O)C=CC5(C)C4C(O)CC23C)C(OC(C)=O)C1OC(C)=O (stereo not drawn) [Compound 9]	24.6	17.8	36.7	8.6	23.0	21.6	10.4	12.2	7.3	10.8	26.1	9.4	58.2	15.5
